Source: patent US20230167505A1, “CIRCULATING TUMOR DNA AS A BIOMARKER FOR LEUKEMIA TREATMENT” (Cardiff Oncology, Inc., priority 2020, published 2023)
Where “and” joins values, the source holds several entries; their conditions need not be identical. Equal values may be shown once.

Legend:
[1] = tested on: PLK1 substrate, TCTP; assay: Target engagement in circulating blasts (pTCTP/TCTP in PBMCs, predose vs 3 hours postdose); assay type: in vivo, human
Description: Samples were analyzed with a FACSCanto II (BD Biosciences).
Protein extract preparation and immunoblot: Protein extracts were prepared from PBMCs isolated from CellSave tube and from HL-60 cells using M-PER buffer with Protease and Phosphatase Inhibitor Cocktails (Thermo Fisher Scientific). Protein concentration was measured with the Pierce BCA Protein Assay Kit (Thermo Fisher Scientific). Western blots were performed as Simple Western Assays using the Wes System (ProteinSimple), a combination of capillary electrophoresis and immunodetection techniques, following the manufacturer's protocols. Primary antibodies were purchased from Cell Signaling Technology: phospho-TCTP-Ser46 (#5251) and TCTP (#5128). Quantitative analysis was performed using Compass Software (ProteinSimple). Signal intensity (area) of pTCTP was normalized to the peak area of TCTP and reported as pTCTP/TCTP or % pTCTP.
Target engagement in blasts was determined by measuring relative pTCTP/TCTP protein levels in PBMCs isolated from patient blood prior to and 3 hours after the first dose of onvansertib (FIG. 8C).

[2] = tested on: patients with relapsed or refractory (R/R) AML
Description: Treatment plan and study design: Onvansertib was administered orally, in escalating doses, on days 1 through 5 in combination with either LDAC (arm A, 20 mg/m^2 subcutaneously once daily on days 1 through 10) or decitabine (arm B, 20 mg/m^2 intravenously over 1 hour on days 1 through 5) in a 28-day cycle. […] The primary objectives were to evaluate dose-limiting toxicities (DLTs) and the maximum tolerated dose (MTD) or recommended phase 2 dose (RP2D) of onvansertib. […] Each arm followed a standard 3+3 dose-escalation design, in which onvansertib dose was escalated by 50% increments. […] If a DLT was reported, an additional 3 patients were treated at that dose. If ≥2 patients experienced a DLT, the dose was considered nontolerated, and lower doses were explored in subsequent cohorts. […] The MTD was defined as the highest dose achieved at which no more than one of six subjects experienced a DLT. The RP2D was determined based on the assessment of safety, pharmacokinetics, and preliminary efficacy in subjects treated at a dose cleared for safety. For the study, the primary endpoint was to evaluate first-cycle dose-limiting toxicities and the MTD. Secondary and exploratory endpoints included safety, pharmacokinetics, antileukemic activity, and response biomarkers.
Safety: Patients were evaluable for safety if they had received at least one dose of onvansertib. […] Investigators assessed causality as either unrelated, unlikely, possibly, probably, or definitely related to study drugs. DLTs (defined in Table 1) were evaluated during the first cycle of treatment.

[3] = all patients (N = 40), onvansertib + LDAC or decitabine, patients n (%)
[4] = phase Ib, onvansertib + LDAC or decitabine

## CN1CCN(c2ccc(OC(F)(F)F)c(Nc3ncc4c(n3)-c3c(c(C(N)=O)nn3CCO)CC4)c2)CC1 [onvansertib, 1-(2-hydroxyethyl)-8-{[5-(4-methylpiperazin-1-yl)-2-(trifluoromethoxy)phenyl]amino}-4,5-dihydro-1H-pyrazolo [4,3-h] quinazoline-3-carboxamide]
[1]; 24 evaluable patients with at least 10% circulating blasts
  patients with target engagement (≥50% decrease in pTCTP/TCTP at 3 hours postdose versus predose): 33%
[1]; nontarget engagement patients (2 of 11)
  patients with ≥20% decrease in bone marrow blasts: 18%
[1]; target engagement patients (4 of 6)
  patients with ≥20% decrease in bone marrow blasts: 67%
[2]; 3 patients: one at 60 mg/m^2, two at 90 mg/m^2
  G3 stomatitis possibly related to onvansertib: 8%
[2]; G2 fatigue, G3 mucositis (DLT), G4 rash (DLT)
  patients discontinued from therapy because of treatment-related AEs: Three
[2]; [3]
  Treatment-emergent AE: Anemia, All grades (%): 15 (37.5) %
  Treatment-emergent AE: Anemia, Grade 1-2 (%): 1 (2.5) %
  Treatment-emergent AE: Blood bilirubin increased, All grades (%): 4 (10) %
  Treatment-emergent AE: Blood bilirubin increased, Grace 3-4 (%): 1 (2.5) %
  Treatment-emergent AE: Blood bilirubin increased, Grade 1-2 (%): 3 (7.5) %
  Treatment-emergent AE: Constipation, All grades (%): 6 (15) %
  Treatment-emergent AE: Constipation, Grade 1-2 (%): 6 (15) %
  Treatment-emergent AE: Cough, All grades (%): 6 (15) %
  Treatment-emergent AE: Cough, Grade 1-2 (%): 6 (15) %
  Treatment-emergent AE: Decreased appetite, All grades (%): 6 (15) %
  Treatment-emergent AE: Decreased appetite, Grade 1-2 (%): 6 (15) %
  Treatment-emergent AE: Diarrhea, All grades (%): 8 (20) %
  Treatment-emergent AE: Diarrhea, Grade 1-2 (%): 8 (20) %
  Treatment-emergent AE: Dizziness, All grades (%): 5 (12.5) %
  Treatment-emergent AE: Dizziness, Grade 1-2 (%): 5 (12.5) %
  Treatment-emergent AE: Dyspnea, All grades (%): 10 (25) %
  Treatment-emergent AE: Dyspnea, Grace 3-4 (%): 2 (5) %
  Treatment-emergent AE: Dyspnea, Grade 1-2 (%): 8 (20) %
  Treatment-emergent AE: Edema, All grades (%): 8 (20) %
  Treatment-emergent AE: Edema, Grace 3-4 (%): 2 (5) %
  Treatment-emergent AE: Edema, Grade 1-2 (%): 6 (15) %
  Treatment-emergent AE: Epistaxis, All grades (%): 6 (15) %
  Treatment-emergent AE: Epistaxis, Grade 1-2 (%): 6 (15) %
  Treatment-emergent AE: Fatigue, All grades (%): 14 (35) %
  Treatment-emergent AE: Fatigue, Grade 1-2 (%): 14 (35) %
  Treatment-emergent AE: Febrile neutropenia, All grades (%): 12 (30) %
  Treatment-emergent AE: Headache, All grades (%): 4 (10) %
  Treatment-emergent AE: Headache, Grade 1-2 (%): 4 (10) %
  Treatment-emergent AE: Leukopenia, All grades (%): 5 (12.5) %
  Treatment-emergent AE: Leukopenia, Grace 3-4 (%): 12.5% and 5 (12.5) %
  Treatment-emergent AE: Lung infection, All grades (%): 4 (10) %
  Treatment-emergent AE: Lung infection, Grace 3-4 (%): 4 (10) %
  Treatment-emergent AE: Nausea/vomiting, All grades (%): 12 (30) %
  Treatment-emergent AE: Nausea/vomiting, Grade 1-2 (%): 12 (30) %
  Treatment-emergent AE: Neutropenia, All grades (%): 10 (25) %
  Treatment-emergent AE: Oropharyngeal pain, All grades (%): 4 (10) %
  Treatment-emergent AE: Oropharyngeal pain, Grade 1-2 (%): 4 (10) %
  Treatment-emergent AE: Pyrexia, All grades (%): 5 (12.5) %
  Treatment-emergent AE: Pyrexia, Grade 1-2 (%): 5 (12.5) %
  Treatment-emergent AE: Rash/pruritus, All grades (%): 11 (27.5) %
  Treatment-emergent AE: Rash/pruritus, Grace 3-4 (%): 1 (2.5) %
  Treatment-emergent AE: Rash/pruritus, Grade 1-2 (%): 10 (25) %
  Treatment-emergent AE: Stomatitis, All grades (%): 9 (22.5) %
  Treatment-emergent AE: Stomatitis, Grace 3-4 (%): 12.5% and 5 (12.5) %
  Treatment-emergent AE: Stomatitis, Grade 1-2 (%): 4 (10) %
  Treatment-emergent AE: Thrombocytopenia, All grades (%): 12 (30) %
  Treatment-emergent AE: Thrombocytopenia, Grade 1-2 (%): 2 (5) %
[2]; all patients, N = 40
  G3 and G4 AE possibly related to onvansertib: anemia: 12.5%
  G3 and G4 AE possibly related to onvansertib: leukopenia: 5%
  G3 and G4 AE possibly related to onvansertib: neutropenia: 15%
  G3 and G4 AE possibly related to onvansertib: thrombocytopenia: 12.5%
[2]; arm B (decitabine), dose level 6 (90 mg/m^2), grade 3 mucositis and grade 4 rash
  patients experiencing a DLT during the first cycle: 2 of 6 and 2 of the 6
[2]; arm B, oral days 1-5 + decitabine 20 mg/m^2 IV days 1-5, 28-day cycle
  MTD of onvansertib in combination with decitabine: 60 mg/m^2
[2]; first five dose levels (12-60 mg/m^2), both arms (LDAC, decitabine)
  DLTs: no DLTs reported
[2]; first five dose levels (12-60 mg/m^2), with LDAC or decitabine
  tolerability: well tolerated
[2]; higher incidence and higher grade at 90 mg/m^2
  skin toxicities: observed at the last two dose levels of onvansertib (60 and 90 mg/m^2)
[2]; of 71 SAEs
  SAEs considered as possibly related to onvansertib: 13%
[2]; one from 18 mg/m^2, one from 27 mg/m^2 dose level
  patients with dose reduction of onvansertib due to hematologic toxicities: Two
[2]; phase Ib, both arms
  patients with SAEs: 33 patients
  total serious AEs (SAE) reported: 71
[2]; [4]
  Serious adverse event Aphasia: Number of events: 1
  Serious adverse event Aphasia: Number of patients: 1
  Serious adverse event Appendicitis: Number of events: 1
  Serious adverse event Appendicitis: Number of patients: 1
  Serious adverse event Arthralgia: Number of events: 1
  Serious adverse event Arthralgia: Number of patients: 1
  Serious adverse event Asthenia: Number of events: 1
  Serious adverse event Asthenia: Number of patients: 1
  Serious adverse event Atrial fibrillation: Number of events: 1
  Serious adverse event Atrial fibrillation: Number of patients: 1
  Serious adverse event Back pain: Number of events: 1
  Serious adverse event Back pain: Number of patients: 1
  Serious adverse event Disease progression: Number of events: 1
  Serious adverse event Disease progression: Number of patients: 1
  Serious adverse event Dyspnea: Number of events: 1
  Serious adverse event Dyspnea: Number of patients: 1
  Serious adverse event Edema peripheral: Number of events: 1
  Serious adverse event Edema peripheral: Number of patients: 1
  Serious adverse event Face edema: Number of events: 1
  Serious adverse event Face edema: Number of patients: 1
  Serious adverse event Febrile neutropenia: Number of events: 25
  Serious adverse event Febrile neutropenia: Number of patients: 17
  Serious adverse event Hematuria: Number of events: 1
  Serious adverse event Hematuria: Number of patients: 1
  Serious adverse event Hemorrhage intracranial: Number of events: 1
  Serious adverse event Hemorrhage intracranial: Number of patients: 1
  Serious adverse event Hyponatremia: Number of events: 1
  Serious adverse event Hyponatremia: Number of patients: 1
  Serious adverse event Infusion related reaction: Number of events: 1
  Serious adverse event Infusion related reaction: Number of patients: 1
  Serious adverse event Leukemic infiltration: Number of events: 1
  Serious adverse event Leukemic infiltration: Number of patients: 1
  Serious adverse event Lower gastrointestinal hemorrhage: Number of events: 1
  Serious adverse event Lower gastrointestinal hemorrhage: Number of patients: 1
  Serious adverse event Lung consolidation: Number of events: 1
  Serious adverse event Lung consolidation: Number of patients: 1
  Serious adverse event Lung infection: Number of events: 5
  Serious adverse event Lung infection: Number of patients: 5
  Serious adverse event Neck pain: Number of events: 1
  Serious adverse event Neck pain: Number of patients: 1
  Serious adverse event Neutrophil count decreased: Number of events: 1
  Serious adverse event Neutrophil count decreased: Number of patients: 1
  Serious adverse event Pain in jaw: Number of events: 1
  Serious adverse event Pain in jaw: Number of patients: 1
  Serious adverse event Palmar-plantar erythrodysaesthesia syndrome: Number of events: 1
  Serious adverse event Palmar-plantar erythrodysaesthesia syndrome: Number of patients: 1
  Serious adverse event Pharyngeal edema: Number of events: 1
  Serious adverse event Pharyngeal edema: Number of patients: 1
  Serious adverse event Physical deconditioning: Number of events: 1
  Serious adverse event Physical deconditioning: Number of patients: 1
  Serious adverse event Pleural effusion: Number of events: 1
  Serious adverse event Pleural effusion: Number of patients: 1
  Serious adverse event Pneumonia fungal: Number of events: 1
  Serious adverse event Pneumonia fungal: Number of patients: 1
  Serious adverse event Pneumonia: Number of events: 3
  Serious adverse event Pneumonia: Number of patients: 3
  Serious adverse event Pulmonary mass: Number of events: 1
  Serious adverse event Pulmonary mass: Number of patients: 1
  Serious adverse event Pyrexia: Number of events: 2
  Serious adverse event Pyrexia: Number of patients: 2
  Serious adverse event Rash maculo-papular: Number of events: 1
  Serious adverse event Rash maculo-papular: Number of patients: 1
  Serious adverse event Septic shock: Number of events: 1
  Serious adverse event Septic shock: Number of patients: 1
  Serious adverse event Seroma: Number of events: 1
  Serious adverse event Seroma: Number of patients: 1
  Serious adverse event Skin lesion: Number of events: 1
  Serious adverse event Skin lesion: Number of patients: 1
  Serious adverse event Soft tissue infection: Number of events: 1
  Serious adverse event Soft tissue infection: Number of patients: 1
  Serious adverse event Staphylococcal bacteremia: Number of events: 1
  Serious adverse event Staphylococcal bacteremia: Number of patients: 1
  Serious adverse event Stomatitis: Number of events: 1
  Serious adverse event Stomatitis: Number of patients: 1
  Serious adverse event Tumor lysis syndrome: Number of events: 1
  Serious adverse event Tumor lysis syndrome: Number of patients: 1
  Serious adverse event Urine output decreased: Number of events: 1
  Serious adverse event Urine output decreased: Number of patients: 1
[2]; phase Ib, all related to AML or its complications
  deaths while on treatment: Three
